# According to patent US4297357A, “N-Phenethylacetamide compounds and process for preparation thereof” (Daiichi Seiyaku Co., Ltd., priority 1978, dated 1981):
# Counter-ions that a name gives are not always drawn.
# How the values were obtained:
# Stress Ulcer = assay: Inhibitory Effect on Stress Ulcer in Rat (Water Immersion Restraint Method); assay type: in vivo; details: water immersion restraint 21° C.; for inhibition in vivo at 100 mg/kg / inhibition in vivo at 200 mg/kg / inhibition in vivo at 400 mg/kg: Rattus norvegicus
# Procedure: In this experiment, test compounds were administered as the free base, in the form of the hydrochloric acid salts or in the form of the hydrate. | Inhibitory Effect on Stress Ulcer in Rat |Inhibitory Effect on Stress Ulcer in Rat |Inhibitory Effect on Stress Ulcer in Rat Note 2. Inhibitory effect on Stress Ulcer was examined according to Water Immersion Restraint Method disclosed in Japanese Journal of Pharmacology, Vol. 18, 9 (1968). Note 3. As test animals, seven rats weighing about 300 g were used for each dosage level. Note 4. Test compounds were injected intraperitoneally or administered orally before 30 minutes of water immersion restrain. Note 5. Test animals were immersed and restrained in water at 21° C. for 20 hours in experiment of Tables 2 and 3 and at 21° C. for 7 hours in experiment of Table 4.
# [1] = test system: Secretion of Gastric Acids Induced by Carpronium Chloride; assay: Inhibitory effect on secretion of gastric acids induced by carpronium chloride (modified Shield's Method); assay type: in vivo; details: rat, i.v., carpronium chloride 8-10 μg/rat
# Procedure: Accordingly, the compounds of this invention are very useful as a unique type of anti-ulcer agent. […] The results obtained in this experiment are shown in Table 5 and Table 6 below. |Inhibitory Effects on Secretion of Gastric Acids Induced |by Carponium Chloride (dose: 8-10 μg/rat, i.v.)
# [2] = test system: Secretion of Gastric Acids Induced by Insuline; assay: Inhibitory effect on secretion of gastric acids induced by insuline (modified Shield's Method); assay type: in vivo; details: rat, i.v., insuline 4 ug/kg
# Procedure: Accordingly, the compounds of this invention are very useful as a unique type of anti-ulcer agent. […] The results obtained in this experiment are shown in Table 5 and Table 6 below. |Inhibitory Effects on Secretion of Gastric Acids |Induced by Insuline (dose: 4 ug/kg, i.v.)
# [3] = stability of hydrate in methanol by thin layer chromatography; assay type: physicochemical; details: room temperature, 48 hours
# Procedure: (§1) It was also confirmed by thin layer chromatography that the hydrate was stable in methanol at room temperature for 48 hours. This means that it is possible to use methanol as a solvent in producing pharmaceutical preparations. It was further confirmed that a mixture of the hydrate of this invention with various kinds of additives such as carriers, diluents, etc., was stable under accelerated conditions, i.e., under high humidity at an elevated temperature for one month or under the light irradiation from 2,500 lux for one month.
# [4] = Stability of Mixture of Hydrate with Various Kinds of Additives (one month storage), color change; assay type: physicochemical; parameters: key to color change: --: no color change; ±: slight color change; +: clear color change
# Procedure: as §1
# Stability of Mixture of Hydrate with Various
# Kinds of Additives (one month storage)
# The meaning of the symbols is as follows.
# Samples were prepared by well mixing 100 mg of the hydrate with 100 mg of
# the additive except for magnesium stearate and talc. In case of using
# magnesium stearate or talc as the additive, 10 mg of the hydrate was used
# [5] = isothermal absorption curve, stability of hydrate under high humidity; assay type: physicochemical
# Procedure: as §1
# ulcer = details: The Pharmacological Basis of Therapeutics, 4th Edition, 234 (1970); cited from earlier work
# cardiovascular system = details: Pharmacometrics, Vol. 8, 835-846 (1974); cited from earlier work
# [6] = ip, 20 h, intraperitoneal, 100 mg/kg
compound,measurement,setting,value
COc1ccc(CCNC(=O)CNc2cccc(Cl)c2)cc1OC,inhibition in vivo at 100 mg/kg,Stress Ulcer; [6],36%
COc1ccc(CCNC(=O)CNc2ccc(C(N)=O)cc2)cc1OC,inhibition in vivo at 100 mg/kg,Stress Ulcer; [6],20%
COc1ccc(C(N)=O)c(NCC(=O)NCCc2ccc(OC)c(OC)c2)c1,inhibition in vivo at 100 mg/kg,Stress Ulcer; [6],44%
COc1ccc(CCNC(=O)CNc2ccc(Cl)cc2C(N)=O)cc1OC,inhibition in vivo at 100 mg/kg,Stress Ulcer; [6],34%
COc1ccc(CCNC(=O)CNc2ccc(Cl)c(C(N)=O)c2)cc1OC,inhibition in vivo at 100 mg/kg,Stress Ulcer; [6],35%
COc1ccc(CCNC(=O)CNc2cc(OC)c(C(N)=O)cc2Cl)cc1OC,inhibition in vivo at 100 mg/kg,Stress Ulcer; [6],21%
COc1ccc(CCNC(=O)CNC(=O)c2ccccc2OC)cc1OC,inhibition in vivo at 100 mg/kg,Stress Ulcer; [6],50%
COc1ccc(CCNC(=O)CNc2cc(N)ncn2)cc1OC,inhibition in vivo at 100 mg/kg,Stress Ulcer; [6],27%
CNc1nc(Cl)c(SC)c(NCC(=O)NCCc2ccc(OC)c(OC)c2)n1,inhibition in vivo at 100 mg/kg,Stress Ulcer; [6],17%
COc1ccc(CCNC(=O)CNc2cccc(S(N)(=O)=O)c2)cc1OC,inhibition in vivo at 100 mg/kg,Stress Ulcer; [6],47%
"COc1ccc(CCNC(=O)CNc2cc(Cl)ccc2C(N)=O)cc1OC [Compound 1, 2-(2-carbamoyl-5-chlorophenylamino)-N-(3,4-dimethoxyphenethyl)acetamide]",Inhibition,[1]; 50 mg/kg,0%
same,Inhibition,[2]; 50 mg/kg,50%
same,inhibition in vivo at 100 mg/kg,"Stress Ulcer; po, 20 h, 100 mg/kg",5%
same,inhibition in vivo at 200 mg/kg,"Stress Ulcer; po, 20 h",17%
same,inhibition in vivo at 400 mg/kg,"Stress Ulcer; po, 20 h",18%
"COc1ccc(CCNC(=O)CNc2cccc(C(N)=O)c2)cc1OC.Cl [Compound 2, 2-(3-carbamoylphenylamino)-N-(3,4-dimethoxyphenethyl)acetamide hydrochloride]",Inhibition,[1]; 50 mg/kg,0%
same,Inhibition,[1]; 100 mg/kg,0%
same,Inhibition,[2]; 10 mg/kg,80%
same,inhibition in vivo at 100 mg/kg,"Stress Ulcer; po, 20 h, 100 mg/kg",5%
same,inhibition in vivo at 200 mg/kg,"Stress Ulcer; po, 20 h",21%
same,inhibition in vivo at 400 mg/kg,"Stress Ulcer; po, 20 h",33%
"COc1ccc(CCNC(=O)CNc2ccccc2)cc1OC [Compound 3, 2-(phenylamino)-N-(3,4-dimethoxyphenethyl)acetamide hydrochloride]",inhibition in vivo at 100 mg/kg,"Stress Ulcer; po, 20 h, 100 mg/kg",20%
same,inhibition in vivo at 200 mg/kg,"Stress Ulcer; po, 20 h",20%
same,inhibition in vivo at 400 mg/kg,"Stress Ulcer; po, 20 h",25%
"COc1ccc(CCNC(=O)CNc2cccc(C(N)=O)c2)cc1OC [Compound 4, 2-(3-carbamoylphenylamino)-N-(3,4-dimethoxyphenethyl)acetamide.3H2 O]",stability in methanol,[3],stable
same,color change,"[4]; additive Calcium Phosphate Dibasic, one month storage, condition shown as drawing 6 (high humidity at an elevated temperature)",--
same,color change,"[4]; additive Calcium Phosphate Dibasic, one month, light 2500 lux",--
same,color change,"[4]; additive Cornstarch, one month storage, condition shown as drawing 6 (high humidity at an elevated temperature)",--
same,color change,"[4]; additive Cornstarch, one month, light 2500 lux",--
same,color change,"[4]; additive Crystalline Cellulose, one month storage, condition shown as drawing 6 (high humidity at an elevated temperature)",--
same,color change,"[4]; additive Crystalline Cellulose, one month, light 2500 lux",--
same,color change,"[4]; additive Hydroxypropylcellulose, one month storage, condition shown as drawing 6 (high humidity at an elevated temperature)",--
same,color change,"[4]; additive Hydroxypropylcellulose, one month, light 2500 lux",--
same,color change,"[4]; additive Hydroxypropylmethylcellulose, one month storage, condition shown as drawing 6 (high humidity at an elevated temperature)",±
same,color change,"[4]; additive Hydroxypropylmethylcellulose, one month, light 2500 lux",--
same,color change,"[4]; additive Lactose, one month storage, condition shown as drawing 6 (high humidity at an elevated temperature)",--
same,color change,"[4]; additive Lactose, one month, light 2500 lux",--
same,color change,"[4]; additive Macrogol 6000, one month storage, condition shown as drawing 6 (high humidity at an elevated temperature)",--
same,color change,"[4]; additive Macrogol 6000, one month, light 2500 lux",--
same,color change,"[4]; additive Magnesium Stearate, one month storage, condition shown as drawing 6 (high humidity at an elevated temperature)",--
same,color change,"[4]; additive Magnesium Stearate, one month, light 2500 lux",--
same,color change,"[4]; additive Mannitol, one month storage, condition shown as drawing 6 (high humidity at an elevated temperature)",--
same,color change,"[4]; additive Mannitol, one month, light 2500 lux",--
same,color change,"[4]; additive Polyvinyl Alcohol, one month storage, condition shown as drawing 6 (high humidity at an elevated temperature)",--
same,color change,"[4]; additive Polyvinyl Alcohol, one month, light 2500 lux",--
same,color change,"[4]; additive Sucrose, one month storage, condition shown as drawing 6 (high humidity at an elevated temperature)",--
same,color change,"[4]; additive Sucrose, one month, light 2500 lux",--
same,color change,"[4]; additive Talc, one month storage, condition shown as drawing 6 (high humidity at an elevated temperature)",--
same,color change,"[4]; additive Talc, one month, light 2500 lux",--
same,stability of mixture with additives,"[4]; in words, high humidity at an elevated temperature for one month or light irradiation from 2,500 lux for one month",stable
same,inhibition in vivo at 100 mg/kg,"Stress Ulcer; po, 7 h, 100 mg/kg",23%
same,inhibition in vivo at 200 mg/kg,"Stress Ulcer; po, 7 h",36%
same,inhibition in vivo at 400 mg/kg,"Stress Ulcer; po, 7 h",70%
same,stability under high humidity,[5]; high humidity at an elevated temperature,very stable
same,relative critical humidity,[5]; isothermal absorption curve,had not relative critical humidity
"NCCc1ccc(O)c(O)c1 [Dopamine, 3,4-dihydroxyphenethylamine]",anti-ulcer activity,ulcer,has anti-ulcer activity
same,action on cardiovascular system,cardiovascular system,acts strongly on cardiovascular system
"CCN1CCCC1CNC(=O)c1cc(S(N)(=O)=O)ccc1OC (centres unmarked) [Sulpiride, N-[(1-ethyl-2-pyrrolidinyl)methyl]-2-methoxy-5-sulfamoylbenzamide, reference compound]",inhibition in vivo at 100 mg/kg,Stress Ulcer; [6],27%
same,inhibition in vivo at 100 mg/kg,"Stress Ulcer; po, 7 h, 100 mg/kg",29%
same,inhibition in vivo at 200 mg/kg,"Stress Ulcer; po, 7 h",20%
same,inhibition in vivo at 400 mg/kg,"Stress Ulcer; po, 7 h",39%
same,inhibition in vivo at 100 mg/kg,"Stress Ulcer; po, 20 h, 100 mg/kg",5%
same,inhibition in vivo at 200 mg/kg,"Stress Ulcer; po, 20 h",4%
same,inhibition in vivo at 400 mg/kg,"Stress Ulcer; po, 20 h",11%
COc1ccc(CCNC(=O)CNc2ccccc2)cc1OC [drawing 8],inhibition in vivo at 100 mg/kg,Stress Ulcer; [6],42%
COc1ccc(CCNC(=O)CNc2cc(Cl)ccc2C(N)=O)cc1OC [drawing 11],inhibition in vivo at 100 mg/kg,Stress Ulcer; [6],38%
COc1ccc(CCNC(=O)CNc2cccc(C(N)=O)c2)cc1OC [drawing 15],inhibition in vivo at 100 mg/kg,Stress Ulcer; [6],53%
COc1ccc(CCNC(=O)CNc2cccc(C(N)=O)c2)cc1OC [drawing 16],Inhibitory Effect,"Stress Ulcer; intraperitoneal, 100 mg/kg, 20 hours",52%
